Consider two compounds from publication PMC8533485 (Biomedicines, 2021).

Where two headings read alike, the source gives them in different places. Some results are limits rather than exact numbers.

The subject of data set [1] is staphylococci and streptococci. The experiment in a line: PK/PD evaluation: observed PK versus EUCAST breakpoint MIC, adjusted by 93% protein binding. To be noted: MIC 0.125 mg/L.
Method: (§1) T > MIC was calculated based on the terminal t1/2 for each patient as a possible marker of the long-term prophylactic effect.
For data set [2] the following is noted: ref [6],[7],[8]; cited from earlier work.
For data set [3], the system named is plasma proteins (mainly albumin). To be noted: cited from earlier work. From the text:
Currently, off-label use at high dosages for osteoarticular infections deserves attention. […] AUC0-1w/MIC and, partic ...

The conditions of data set [4]: in vivo.
In data set [5] the test system is plasma proteins (mainly albumin). To be noted: cited from earlier work. The source holds these as a separate data set.
Data set [6] deals with staphylococci and streptococci. To be noted: in vivo.
Method: as §1
The nature of another data set: clinical. To be noted: human, in vivo, iv.
For another data set, the system named is MSSA. The data set is described as follows: Vancomycin MIC of patient isolates by ETEST. It counts as cell-based, Staphylococcus aureus. To be noted: isolates of individual patients.
For a further data set, the system named is MRSA. The experiment in a line: Vancomycin MIC of patient isolates by ETEST. It counts as cell-based, Staphylococcus aureus. To be noted: isolates of individual patients.

As a reminder, the half-life is how long it takes for the measured level to halve. The low end stands for fast loss, the high end for slow loss. What is called Cmax is the maximum level reached in the sampled fluid or tissue. `CN[C@H]1C(=O)N[C@@H]2Cc3ccc(cc3)Oc3cc4cc(c3O[C@@H]3O[C@H](C(=O)O)[C@@H](O)[C@H](O)[C@H]3NC(=O)CCCCCCCCC(C)C)Oc3ccc(cc3Cl)[C@@H](O)[C@@H]3NC(=O)[C@H](NC(=O)[C@@H]4NC(=O)[C@@H](NC2=O)c2cc(cc(O)c2Cl)Oc2cc1ccc2O)c1ccc(O)c(c1)-c1c(O[C@H]2O[C@H](CO)[C@@H](O)[C@H](O)[C@@H]2O)cc(O)cc1[C@@H](C(=O)NCCCN(C)C)NC3=O` [DBV, Dalbavancin]: the “median AUC0-2w/MIC ratio” value in [1] (dual dose regimen) was 31,366; in data set [1] (single dose regimen), 20,590. The “half-life (t1/2)” value in data set [2] was “around 9 days”. Moreover, the “binding to plasma proteins” value in data set [3] is 93%; in [5] it was about 98%. Further, the “t1/2 reached in multiphasic profile” value in data set [4] is “higher than 500 h”. Also, the “AUC0-2w/MIC adjusted by 93% protein binding, all patients” value in [6] (human) was “higher than 17,000”. For the same compound, the “AUC0-2w/MIC relative to previously suggested cut-off of 1000 (for staphylococci)” value in data set [6] was “at least 8 folds”. Besides, in [6], the “T > MIC in all patients” value is given as “higher than 6 weeks”. Besides, the half-life was 26.1 days in the data set “clinical” and 21.9 days in the data set “clinical” (1500 mg). In the data set “clinical” (1500 mg, C max), this compound returned a Cmax of 390 µg/mL.

For `CN[C@H](CC(C)C)C(=O)N[C@H]1C(=O)N[C@@H](CC(N)=O)C(=O)N[C@H]2C(=O)N[C@H]3C(=O)N[C@H](C(=O)N[C@H](C(=O)O)c4cc(O)cc(O)c4-c4cc3ccc4O)[C@H](O)c3ccc(c(Cl)c3)Oc3cc2cc(c3O[C@@H]2O[C@H](CO)[C@@H](O)[C@H](O)[C@H]2O[C@H]2C[C@](C)(N)[C@H](O)[C@H](C)O2)Oc2ccc(cc2Cl)[C@H]1O` [Vancomycin, vancomycin], the entries for the “MIC for Vancom.” value in the data set with MSSA and in the data set on MRSA were at most 0.5 µg/mL and 1 µg/mL, respectively.
